Measurements published in ChEMBL document CHEMBL3046629, “Fungicidal Activities of 2-Methoxy-2-[2-(benzylideneaminooxymethyl)phenyl]-N-methylacetamide Derivatives” (2002).

What was measured:
Assay type in all cases: functional
[1] = system: Pseudoperonospora cubensis; test: Fungicidal activity against Pseudoperonospora cubensis assessed as cucumber downy mildew disease control at 500 ppm foliar application 24 hr before inoculation onto the abaxial(treated) surface of leaf by preventive manner
[2] = system: Pseudoperonospora cubensis; test: Fungicidal activity against Pseudoperonospora cubensis assessed as cucumber downy mildew disease control at 125 ppm foliar application 24 hr before inoculation onto the abaxial(treated) surface of leaf by preventive manner
[3] = system: Pseudoperonospora cubensis; test: Fungicidal activity against Pseudoperonospora cubensis assessed as cucumber downy mildew disease control at 2 ppm foliar application 24 hr after inoculation by curative manner
[4] = system: Pseudoperonospora cubensis; test: Fungicidal activity against Pseudoperonospora cubensis assessed as cucumber downy mildew disease control at 7.8 ppm foliar application 24 hr after inoculation by curative manner
[5] = system: Pseudoperonospora cubensis; test: Fungicidal activity against Pseudoperonospora cubensis assessed as cucumber downy mildew disease control at 31.3 ppm foliar application 24 hr after inoculation by curative manner
[6] = system: Pseudoperonospora cubensis; test: Fungicidal activity against Pseudoperonospora cubensis assessed as cucumber downy mildew disease control at 125 ppm foliar application 24 hr after inoculation by curative manner
[7] = system: Pseudoperonospora cubensis; test: Fungicidal activity against Pseudoperonospora cubensis assessed as cucumber downy mildew disease control at 2 ppm foliar application 24 hr before inoculation onto the abaxial(treated) surface of leaf by preventive manner
[8] = system: Pseudoperonospora cubensis; test: Fungicidal activity against Pseudoperonospora cubensis assessed as cucumber downy mildew disease control at 31.3 ppm foliar application 24 hr before inoculation onto the abaxial(treated) surface of leaf by preventive manner
[9] = system: Pseudoperonospora cubensis; test: Fungicidal activity against Pseudoperonospora cubensis assessed as cucumber downy mildew disease control at 7.8 ppm foliar application 24 hr before inoculation onto the abaxial(treated) surface of leaf by preventive manner
[10] = system: Pseudoperonospora cubensis; test: Fungicidal activity against Pseudoperonospora cubensis assessed as cucumber downy mildew disease control at 2 ppm foliar application 24 hr before inoculation onto the adaxial(treated) surface of leaf by preventive manner
[11] = system: Pseudoperonospora cubensis; test: Fungicidal activity against Pseudoperonospora cubensis assessed as cucumber downy mildew disease control at 500 ppm foliar application 24 hr before inoculation onto the adaxial(treated) surface of leaf by preventive manner
[12] = system: Pseudoperonospora cubensis; test: Fungicidal activity against Pseudoperonospora cubensis assessed as cucumber downy mildew disease control at 125 ppm foliar application 24 hr before inoculation onto the adaxial(treated) surface of leaf by preventive manner
[13] = system: Pseudoperonospora cubensis; test: Fungicidal activity against Pseudoperonospora cubensis assessed as cucumber downy mildew disease control at 31.3 ppm foliar application 24 hr before inoculation onto the adaxial(treated) surface of leaf by preventive manner
[14] = system: Pseudoperonospora cubensis; test: Fungicidal activity against Pseudoperonospora cubensis assessed as cucumber downy mildew disease control at 7.8 ppm foliar application 24 hr before inoculation onto the adaxial(treated) surface of leaf by preventive manner
Botrytis cinerea [15] = test: Fungicidal activity against Botryotinia fuckeliana assessed as cucumber gray mold disease control at 7.8 ppm treated on upper surface of leaf 24 hr before inoculation at 22 +/- 2 degC measured after 3 days by preventive manner
Podosphaera fuliginea [16] = test: Fungicidal activity against Podosphaera fuliginea assessed as cucumber powdery mildew disease control at 7.8 ppm treated on upper surface of leaf 24 hr before inoculation at 23 +/- 2 degC measured after 10 days by preventive manner
Podosphaera fuliginea [17] = test: Fungicidal activity against Podosphaera fuliginea assessed as cucumber powdery mildew disease control at 31.3 ppm treated on upper surface of leaf 24 hr before inoculation at 23 +/- 2 degC measured after 10 days by preventive manner
Botrytis cinerea [18] = test: Fungicidal activity against Botryotinia fuckeliana assessed as cucumber gray mold disease control at 31.3 ppm treated on upper surface of leaf 24 hr before inoculation at 22 +/- 2 degC measured after 3 days by preventive manner
Botrytis cinerea [19] = test: Fungicidal activity against Botryotinia fuckeliana assessed as cucumber gray mold disease control at 500 ppm treated on upper surface of leaf 24 hr before inoculation at 22 +/- 2 degC measured after 3 days by preventive manner
Podosphaera fuliginea [20] = test: Fungicidal activity against Podosphaera fuliginea assessed as cucumber powdery mildew disease control at 500 ppm treated on upper surface of leaf 24 hr before inoculation at 23 +/- 2 degC measured after 10 days by preventive manner
Botrytis cinerea [21] = test: Fungicidal activity against Botryotinia fuckeliana assessed as cucumber gray mold disease control at 125 ppm treated on upper surface of leaf 24 hr before inoculation at 22 +/- 2 degC measured after 3 days by preventive manner

Compound | Activity [1] [%] | Activity [8] [%] | Activity [11] [%] | Activity [14] [%] | Activity (Podosphaera fuliginea [16]) [%] | Activity (Botrytis cinerea [18]) [%] | also measured
CNC(=O)C(OC)c1ccccc1CO/N=C(\C)c1ccc(Cl)cc1 (racemic) | 97 | 70 | 100 | 100 | 90 |  | Activity [2]: 85%; Activity [3]: 0%; Activity [4]: 5%; Activity [5]: 50%; Activity [6]: 70%; Activity [7]: 0%; Activity [9]: 0%; Activity [10]: 0%; Activity [12]: 100%; Activity [13]: 100%; Activity (Botrytis cinerea [15]): 50%
CNC(=O)C(OC)c1ccccc1CO/N=C(\C)c1ccc(OC)cc1 (racemic) | 90 | 0 | 100 | 0 |  |  | Activity [2]: 50%; Activity [3]: 0%; Activity [4]: 0%; Activity [5]: 20%; Activity [6]: 75%; Activity [7]: 0%; Activity [9]: 0%; Activity [10]: 0%; Activity [12]: 100%; Activity [13]: 100%; Activity (Botrytis cinerea [15]): 50%; Activity (Podosphaera fuliginea [17]): 90%
CNC(=O)C(OC)c1ccccc1CO/N=C(\C)c1ccc(C(F)(F)F)cc1 (racemic) | 100 | 91 | 100 | 100 | 90 |  | Activity [2]: 96%; Activity [3]: 25%; Activity [4]: 40%; Activity [5]: 70%; Activity [6]: 75%; Activity [7]: 15%; Activity [9]: 40%; Activity [10]: 100%; Activity [12]: 100%; Activity [13]: 100%; Activity (Botrytis cinerea [15]): 50%
CNC(=O)C(OC)c1ccccc1CO/N=C(\C)c1ccc(C)c(C)c1 (racemic) |  |  |  | 90 | 90 | 50 | Activity [2]: 90%
CNC(=O)C(OC)c1ccccc1COCc1ccccc1 (racemic) | <90 |  | 90 |  |  |  | Activity (Botrytis cinerea [19]): <50%; Activity (Podosphaera fuliginea [20]): <90%
CNC(=O)C(OC)c1ccccc1CO/N=C/c1ccccc1 (racemic) | <90 |  | <90 |  |  |  | Activity (Botrytis cinerea [19]): 50%; Activity (Podosphaera fuliginea [20]): <90%
CNC(=O)C(OC)c1ccccc1CO/N=C(\C)c1ccc(F)cc1 (racemic) |  | 90 |  |  | 90 | 50 | Activity [13]: 90%
CNC(=O)C(OC)c1ccccc1CO/N=C(\C)c1cc(C)cc(C)c1C (racemic) | <90 |  | 90 |  | 90 |  | Activity (Botrytis cinerea [19]): 50%
CCC/C(=N\OCc1ccccc1C(OC)C(=O)NC)c1ccc(Cl)cc1 (racemic) |  | 90 |  | 90 | 90 |  | Activity (Botrytis cinerea [21]): 50%
CNC(=O)C(OC)c1ccccc1CO/N=C(\C)c1ccccc1 (racemic) | <90 |  | <90 |  |  | 50 | Activity (Podosphaera fuliginea [17]): 90%
CNC(=O)C(OC)c1ccccc1CO/N=C(\C)c1ccc(C)cc1C (racemic) | 90 |  |  |  |  | 50 | Activity [12]: 90%; Activity (Podosphaera fuliginea [17]): 90%
CNC(=O)C(OC)c1ccccc1CO/N=C(\C)c1ccc(C(C)(C)C)cc1 (racemic) | <90 |  | 90 |  | 90 | 50 | 
CNC(=O)C(OC)c1ccccc1Oc1ccccc1 (racemic) | <90 |  | <90 |  |  |  | Activity (Botrytis cinerea [19]): <50%; Activity (Podosphaera fuliginea [20]): <90%
CCOc1ccc(/C(C)=N/OCc2ccccc2C(OC)C(=O)NC)cc1 (racemic) | <90 |  | 90 |  | 90 | 50 | 
CNC(=O)C(OC)c1ccccc1CO/N=C(\C)c1ccc(-c2ccccc2)cc1 (racemic) | <90 |  | <90 |  | 90 |  | Activity (Botrytis cinerea [15]): 50%
CNC(=O)C(OC)c1ccccc1COC(=O)c1ccccc1 (racemic) | <90 |  | 90 |  |  |  | Activity (Botrytis cinerea [19]): <50%; Activity (Podosphaera fuliginea [20]): <90%
CNC(=O)C(OC)c1ccccc1CO/N=C(\C)c1ccc(Cl)c(Cl)c1 (racemic) |  | 90 |  | 90 | 90 |  | Activity (Botrytis cinerea [15]): 50%
